Experimental data from patent US20260317319A1, “NOVEL ERGOLINES AND METHODS OF TREATING MOOD DISORDERS” (Gilgamesh Pharma Inc., priority 2023, published 2026).

Test system: C57BL/6 mice
Assay: Automated mouse head twitch response (HTR) assay (video tracking)
Assay type: in vivo
Conditions: for # HTR/20 min at Most Efficacious Dose / Most Efficacious Dose for # HTR/20 min / Most Efficacious Dose for Peak HTR/min / Peak HTR/min at Most Efficacious Dose: sc
Method: Disclosed compounds were tested for their ability to induce a head twitch response (HTR) in mice using an automated video tracking procedure, with the results summarized in Table 8 and FIG. 4.
Animals. Adult male C57BL/6 mice aged 8-10 weeks (Jackson Labs, Bar Harbor, ME; body weight 18-25 g) were used in this experiment. Animals were group housed under environmentally controlled temperatures and 12-hour light/dark cycles (lights on between 06:00-18:00 h), with ad libitum food and water. Mice were habituated to the facility for at least 5 days prior to testing. All animal procedures were approved by the local IACUC and conducted in accordance with the NIH Guide for the Care and Use of Laboratory Animals.
Procedure. Mice were administered one dose of the drug and immediately placed into a small open field for behavioral observation. High-speed video of animals' behavior was captured continuously for 20 min. Video recordings were imported into an image processing software, which detects multiple points of interest on each animal's body, including the left and right ear. HTR events were defined as periodic deviations of ear locations from temporally averaged ear locations. Predefined thresholds for magnitude and frequency of location deviations were used to filter HTR events from random head movements. The method was validated by comparing detected events with manual (human) observations and found to have an accuracy >95%. The total number of HTR events counted during the 20-min recording and the rate in HTR/min calculated over 2-min bins were determined for each animal at each dose.
Statistical Analysis. The data points shown are the mean±standard error of the mean (SEM).

[1] = 20 min recording, mean, at each compound's most efficacious dose (35*, 43*, 44*: suppressed below vehicle 14.5, dose is that of least suppression)
[2] = dose giving highest peak HTR/min (35*, 43*, 44*: dose that resulted in the least suppression)
[3] = dose giving most HTR/20 min (35*, 43*, 44*: dose that resulted in the least suppression)
[4] = rate over 2-min bins, mean, at each compound's most efficacious dose (35*, 43*, 44*: suppressed below vehicle 1.62, dose is that of least suppression)

| Structure (SMILES) | head twitch response, automated (in vivo) | # HTR/20 min at Most Efficacious Dose (in vivo) [HTR/20 min] | Most Efficacious Dose for # HTR/20 min (in vivo) | Most Efficacious Dose for Peak HTR/min (in vivo) | Peak HTR/min at Most Efficacious Dose (in vivo) [HTR/min] | # HTR/20 min at Most Efficacious Dose [1] [HTR/20 min] | Most Efficacious Dose for Peak HTR/min [2] | Most Efficacious Dose for # HTR/20 min [3] | Peak HTR/min at Most Efficacious Dose [4] [HTR/min] |
| --- | --- | --- | --- | --- | --- | --- | --- | --- | --- |
| CCN(CC)C(=O)[C@@H]1C=C2c3cccc4[nH]cc(c34)C[C@H]2N(C)C1 [LSD, lysergic acid diethylamide, reference compound] | potent and robust increase in HTRs | 44.62 | (0.1) mg/kg, sc | (0.032) mg/kg, sc | 4.13 |  |  |  |  |
| CCN(CC)C(=O)[C@@H]1C=C2c3cccc4[nH]cc(c34)C[C@H]2N(Cc2cccc(OC)c2)C1 [Compound 18, (6aR,9R)—N,N-diethyl-7-(3-methoxybenzyl)-4,6,6a,7,8,9-hexahydroindolo[4,3-fg]quinoline-9-carboxamide] |  |  |  |  |  | 7.62 | (0.1) mg/kg, sc | (3.2) mg/kg, sc | 1.12 |
| CC[C@@H](C)NC(=O)[C@@H]1C=C2c3cccc4[nH]cc(c34)C[C@H]2N(C)C1 [Int8] |  |  |  |  |  | 23.625 | (0.32) mg/kg, sc | (0.32) mg/kg, sc | 2.06 |
| CCN(CC)C(=O)[C@@H]1C=C2c3cccc4[nH]cc(c34)C[C@H]2N(Cc2ccc(OC)cc2)C1 [Compound 19, (6aR,9R)—N,N-diethyl-7-(4-methoxybenzyl)-4,6,6a,7,8,9-hexahydroindolo[4,3-fg]quinoline-9-carboxamide] |  |  |  |  |  | 9.50 | (1) mg/kg, sc | (10) mg/kg, sc | 1.31 |
| C=CCN1C[C@H](C(=O)N[C@H](C)CC)C=C2c3cccc4[nH]cc(c34)C[C@H]21 [Compound 8, (6aR,9R)-7-allyl-N—((R)-sec-butyl)-4,6,6a,7,8,9-hexahydroindolo[4,3-fg]quinoline-9-carboxamide] |  |  |  |  |  | 21.375 | (3.2) mg/kg, sc | (1) mg/kg, sc | 2.14 |
